In data set [1] the test system is rabbit platelet-rich plasma. Conditions: 3µM; cited from earlier work.
Data set [2] can be described thus: Pharmacokinetics in rabbits. Conditions: rabbit, in vivo.
Data set [3] has as its target recombinant FXIa (Rattus norvegicus, UniProt F7F105).
Data set [4] in a line: Ex vivo coagulation assays. The format is in vivo, rabbit.
In data set [5] the target is recombinant FXIa (Oryctolagus cuniculus, UniProt G1SSQ6). Put plainly: biochemical.
The test system of data set [6] is rabbit platelet-rich plasma. The data set can be described thus: In vitro platelet aggregation in hirudin-treated rabbit platelet-rich plasma. The format is cell-based. Conditions: for peak platelet aggregation response to ADP (10 µM): control 59 ± 1%; for peak platelet aggregation response to ADP (10 µM) / peak platelet aggregation response to collagen (10 µg/ml) / peak platelet aggregation response to arachidonic acid (250 µM): n = 4; for peak platelet aggregation response to collagen (10 µg/ml): control 66 ± 1%; for peak platelet aggregation response to arachidonic acid (250 µM): control 67 ± 1%.

Data set [7] relates to cynomolgus monkey plasma. Put plainly: In vitro PT in cynomolgus monkey plasma. Conditions: 40 μM, reagent not given. It is filed as biochemical.
Data set [8] deals with cynomolgus monkey plasma. The data set can be described thus: Ecarin clotting time in cynomolgus monkey plasma. Particulars: 40 μM. The format is biochemical.
Data set [9] concerns pooled human plasma. Put plainly: Prothrombin time in pooled human plasma. The format is biochemical. Particulars: 40 μM total plasma concentration; baseline 10.3 ± 0.1 s.
For data set [10], the system named is electrically mediated carotid arterial thrombosis. Put plainly: Rabbit ECAT model, prevention of thrombosis. It is filed as in vivo.
The test system of data set [11] is pooled human plasma. Put plainly: Thrombin clotting time in pooled human plasma. It is filed as biochemical. Particulars: baseline 16.6 s.
In data set [12] the target is recombinant FXIa (Macaca fascicularis, UniProt A0A2K5VVW4). The data set can be described thus: biochemical.
In data set [13] the target is recombinant FXIa (Canis lupus familiaris, UniProt A0A8I3NYS2). Conditions: dog recombinant FXIa.
Setting [14] is: ECAT rabbits, 120 min after start of infusion.

Sequence of recombinant FXIa (Oryctolagus cuniculus, UniProt G1SSQ6) (G1SSQ6 387-624): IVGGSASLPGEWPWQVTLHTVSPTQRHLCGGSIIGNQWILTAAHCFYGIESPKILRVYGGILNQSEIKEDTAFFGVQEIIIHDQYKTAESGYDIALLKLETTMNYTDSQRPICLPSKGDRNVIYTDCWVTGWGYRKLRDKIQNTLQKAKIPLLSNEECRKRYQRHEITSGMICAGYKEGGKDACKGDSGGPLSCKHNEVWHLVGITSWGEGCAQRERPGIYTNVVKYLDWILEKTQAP
Sequence of recombinant FXIa (Canis lupus familiaris, UniProt A0A8I3NYS2) (A0A8I3NYS2 389-626): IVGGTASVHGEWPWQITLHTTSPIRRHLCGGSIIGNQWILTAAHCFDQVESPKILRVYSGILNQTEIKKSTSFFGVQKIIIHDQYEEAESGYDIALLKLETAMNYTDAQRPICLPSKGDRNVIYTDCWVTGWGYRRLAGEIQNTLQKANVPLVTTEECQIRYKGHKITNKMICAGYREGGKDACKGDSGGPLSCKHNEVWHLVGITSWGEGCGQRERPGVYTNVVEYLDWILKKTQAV
Sequence of recombinant FXIa (Macaca fascicularis, UniProt A0A2K5VVW4) (A0A2K5VVW4 388-625): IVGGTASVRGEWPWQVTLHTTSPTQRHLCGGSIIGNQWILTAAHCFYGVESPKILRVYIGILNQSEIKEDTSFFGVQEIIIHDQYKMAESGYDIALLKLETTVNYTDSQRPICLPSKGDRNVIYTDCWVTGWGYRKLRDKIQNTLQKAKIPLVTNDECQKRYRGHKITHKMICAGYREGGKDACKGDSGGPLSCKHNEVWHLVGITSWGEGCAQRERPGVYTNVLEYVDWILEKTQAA
Sequence of recombinant FXIa (Rattus norvegicus, UniProt F7F105) (F7F105 400-556): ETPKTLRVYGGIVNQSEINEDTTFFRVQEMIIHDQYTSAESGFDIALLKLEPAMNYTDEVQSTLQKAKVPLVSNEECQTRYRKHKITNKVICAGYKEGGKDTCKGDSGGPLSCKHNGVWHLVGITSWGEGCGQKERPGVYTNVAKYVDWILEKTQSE

Regarding `Cc1noc(C)c1S(=O)(=O)N[C@@H](CNC(=O)C[C@H]1CC(c2ccc(C(=N)N)cc2)=NO1)C(=O)O` [DMP802], the “platelet aggregation responses to ADP, arachidonic acid, and collagen” value in data set [1] is “almost completely inhibited”.

Turning to `C[C@@H]1CCC[C@H](n2cnc(-c3cc(Cl)ccc3-n3cc(Cl)nn3)cc2=O)c2cc(ccn2)-c2c(cnn2C(F)F)NC1=O` [milvexian], in data set [2] (male, iv, 0.8 mg/kg), the concentration at 10 min was determined as 2000 nM and the concentration at 8 h is 100 nM. In data set [2] (po, 20 mg/kg), this compound returned a concentration at 1 h of 2000 nM and a concentration at 24 h of 40 nM. Also, the Ki (in general, the equilibrium dissociation constant of an inhibitor or competing ligand from its target) at recombinant FXIa [3] worked out at 490 ± 40 nM. Besides, in [4] (setting [14]), the “ex vivo PT” value is given as “did not alter” and the “ex vivo TT” value was “did not alter”. Also, the “ex vivo APTT” value in [4] (ECAT rabbits, highest two doses, 120 min after start of infusion) was “elevated APTT significantly”. Moreover, the “prolongation of ex vivo APTT needed to achieve 50% thrombus weight reduction” value in data set [4] (rabbit ECAT) amounted to 1.6 fold. Also, the Ki on recombinant FXIa [5] amounted to 0.38 ± 0.01 nM. In addition, in data set [6] (milvexian 1 μM), the “peak platelet aggregation response to ADP (10 µM)” value amounted to 58 ± 2%, the “peak platelet aggregation response to collagen (10 µg/ml)” value stood at 67 ± 2% and the “peak platelet aggregation response to arachidonic acid (250 µM)” value amounted to 65 ± 1%. In data set [6] (milvexian 10 μM), the “peak platelet aggregation response to ADP (10 µM)” value was 55 ± 2%, the “peak platelet aggregation response to collagen (10 µg/ml)” value stood at 69 ± 1% and the “peak platelet aggregation response to arachidonic acid (250 µM)” value is on record as 66 ± 2%. Further, in data set [6] (result in words), the “platelet aggregation to ADP, arachidonic acid, or collagen” value is reported as “did not alter”. The “PT increase over baseline” value in the data set with cynomolgus monkey plasma [7] was “approximately 2 ×”. Also, the “ecarin clotting time increase over baseline” value in the data set on cynomolgus monkey plasma [8] is 1.9 ×. In addition, the PT in the data set on pooled human plasma [9] worked out at 12.9 ± 0.4 s. Also, in data set [10] (0.063 + 0.04 mg/kg+mg/kg/h IV, n = 6), the “reduction of thrombus weight” value is 15 ± 10%. Moreover, the “20% maximal effective concentration (antithrombotic)” value in data set [10] (total plasma concentration, 95% CI 23–128) worked out at 55 nM. In the data set on pooled human plasma [11] (20 μM total plasma concentration), this compound gave a TT of 24.8 s. In the data set on pooled human plasma [11] (40 μM total plasma concentration), this compound registered a TT of 28.4 s. For the same compound, on recombinant FXIa [12], the Ki was determined as 0.15 ± 0.01 nM. Besides, the Ki at recombinant FXIa [13] was found to be 0.64 ± 0.03 nM.

Source of the values: PMC9299130 (Journal of Thrombosis and Haemostasis, 2021).
